According to US10328075B2, “Method of treatment and compounds for use therein” (Baker Heart and Diabetes Institute, priority 2015, dated 2019):
“Also recorded” adds a separate entry of the source.

What was measured:
hFPR1 [1] = target: T1, hFPR1 (Homo sapiens, UniProt P21462); experiment: [Ca2+]i mobilization in FlpIn-CHO cells stably expressing hFPR1; type: cell-based; design: Calcium Rmax: unit not given here
T1 construct: expressed in transfected cells
T1 sequence (P21462 1-350): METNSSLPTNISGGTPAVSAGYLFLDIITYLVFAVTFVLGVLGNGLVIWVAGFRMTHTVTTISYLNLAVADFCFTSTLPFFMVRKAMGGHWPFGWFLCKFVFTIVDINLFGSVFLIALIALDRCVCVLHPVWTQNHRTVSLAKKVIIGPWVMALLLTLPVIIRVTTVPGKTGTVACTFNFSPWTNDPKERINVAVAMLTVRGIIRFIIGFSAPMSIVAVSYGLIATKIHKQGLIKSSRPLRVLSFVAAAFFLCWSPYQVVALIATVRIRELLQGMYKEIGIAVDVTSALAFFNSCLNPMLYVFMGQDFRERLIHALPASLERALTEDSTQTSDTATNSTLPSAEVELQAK
Text: (§1) cDNDA construct and generation of stable cell lines: cDNA in pcDNA3.1^+ encoding the human formyl peptide receptors (FPR) subtypes, hFPR1, hFPR2 and hFPR3 was obtained from Invitrogen. The sequences for 3 hFPR receptors were amplified by PCR and cloned into the Gateway entry vector, pDONR202™, using the BP clonase enzyme mix, according to the manufactures' instructions (Invitrogen Inc, Carlsbad, Calif., USA). All hFPR receptors constructs in pDONR201™ were subsequently transfected into the pEF5/FRT/V5/dest vector using the LR clonase enzyme mix (Invitrogen). Receptor constructs (pEF5/FRT/V5/dest) were used to transfect FIp-In CHO cells as described previously (Valant C et al., PNAS, 2014). Cells were selected using 500 μg/mL hydromycin to generate cell lines stably expressing each receptor construct. Cells were maintained and cultured in high glucose DMEM supplemented with 10% FBS, 16 mM HEPES and 500 μg/mL hydromycin at 37° C. under a humidified atmosphere containing 5% CO2.
(§2) In the various assays described below, cells were plated into 96-well transparent cell culture plates at 4×10^4 cells per well, cultured overnight in serum-free media at 37° C. in 5% CO2.
Intracellular calcium mobilization: Intracellular calcium mobilization was assayed as described previously (Keov, P et al., 2014). Briefly, cells were washed once using HEPES buffered saline (HBS) solution [150 mM NaCl, 2.2 mM CaCl2, 2.6 mM KCl, 1.2 mM MgCl2, 10 mM HEPEs, 10 mM D-Glucose, 0.5% (w/v) bovine serum albumin (BSA) and 4 mM probenecid] at pH 7.4, then treated with Fluo-4-AM (1 μM, in HBS/BSA/probenecid) for 60 min at 37° C. in 5% CO2 in the dark. Cells were then further washed and placed in HBS/BSA/probenecid solution for ligation addition and assay using the FLEXstation 3 plate reader (Molecular Devices, Sunnyvale, Calif.). For all experiments, peak change in fluorescence signal was normalized to the cellular response to 100 μM ATP, which was used as an internal positive control.
(§3) Data analysis: All data were analysed using GraphPad Prism 6.0 (GraphPad Software, San Deigo, Calif., USA). Where appropriate, concentration-response curves were fitted to derive the maximal agonist effect (Emax), and the ligand potency estimate (pEC50), where Emax is the maximal possible response of the system (not the agonist), basal is the basal level of response in the absence of agonist, and pEC50 is the negative logarithm of the agonist concentration that gives a response halfway between Emax and basal.
In the present study, FIp-IN CHO cells and Gateway plasmid were obtained from Invitrogen Inc (Carlsbad, Calif., USA). The sequences for all 3 known human FPRs (hFPR1, hFPR2 and hFPR3) were amplified by PCR and cloned into the Gateway entry vector, pDONR202TM, using the BP clonase enzyme mix, according to the manufacturers' instructions. The hFPR pDONR201TM constructs were subsequently transfected into the pEF5/FRT/V5/dest vector using the LR clonase enzyme mix (Invitrogen). Receptor constructs (pEF5/FRT/V5/dest) were used to transfect FIp-IN CHO cells, as described previously (Valant et al. 2014). Cells were selected using 500 μg/mL hydromycin to generate cell lines stably expressing each human receptor construct. Cells were maintained and cultured in high glucose Dulbecco's modified eagle medium (DMEM) supplemented with 10% fetal bovine serum (FBS, from JRH Biosciences, Lenexa, Kans., USA) and 500 μg/mL hydromycin B (Invitrogen Inc) at 37° C. under a humidified atmosphere containing 5% CO2. Cell were plated into 96-well transparent cell culture plates at 4×10^4 cells per well, cultured overnight in serum-free media at 37° C. in 5% CO2.
(ii) Intracellular Ca2+ mobilization: Intracellular Ca2+ mobilization was determined in stably-transfected recombinant hFPR CHO cells, as described previously (Valant et al. 2014).

hFPR1 [2] = target: T1, hFPR1; experiment: ERK1/2 phosphorylation (AlphaScreen SureFire) in hFPR1-FlpIn-CHO cells; type: cell-based
Text: as §1, §2
(§4) Measurement of extracellular signal regulated kinase 1 and 2 phosphorylation (pERK1/2): Initial ERK1/2 phosphorylation at Thr202/Tyr204 time-course experiments were performed to determine the time at which ERK1/2 phosphorylation was maximal after stimulation by each agonist. Cells were seeded onto transparent 96-well cell culture plates at 4×10^4 cells per well. After 6 h, cells were washed once with PBS, and then incubated in serum-free DMEM overnight, to allow FBS-stimulated phosphorylated ERK1/2 levels to subside. […] 10% (v/v) FBS was used as a positive control, with vehicle controls also included. The reaction was terminated by removal of study drugs and lysis of cells with 100 μL of SureFire lysis buffer (TGR Biosciences). Cell were lysed in SureFire lysis buffer and transferred to 384-well opaque proxiplates. Under low-light conditions, a 1:120 (v:v) dilution of AlphaScreen beads (both acceptor and donor):Surefire reaction buffer was prepared, which was mixed with the activation buffer in a ratio of 6:1 (v:v), respectively. Plates were incubated in the dark at 37° C. for 1 h before the fluorescence signal was measured by a Fusion-α plate reader (PerkinElmer Life and Analytical Sciences, Foster city, CA, USA) with standard AlphaScreen settings. Data were normalized to the maximal response elicited by 10% (v/v) FBS at the same time point.
(§5) Receptor mediated pERK1/2 levels were determined using the AlphaScreen™ ERK1/2 SureFire™ kit, as described previously (Keov, P et al., 2014). For all experiments, 10% FBS was used as internal positive control to stimulate pERK1/2, and which the maximum responses were used for normalization of data, whilst vehicle was used as negative control.
as §3
(§6) In the present study, FIp-IN CHO cells and Gateway plasmid were obtained from Invitrogen Inc (Carlsbad, Calif., USA). The sequences for all 3 known human FPRs (hFPR1, hFPR2 and hFPR3) were amplified by PCR and cloned into the Gateway entry vector, pDONR202TM, using the BP clonase enzyme mix, according to the manufacturers' instructions. The hFPR pDONR201TM constructs were subsequently transfected into the pEF5/FRT/V5/dest vector using the LR clonase enzyme mix (Invitrogen).

hFPR1 [3] = target: T1, hFPR1; experiment: Quantification of biased agonism (operational model) at hFPR1 in CHO cells; type: cell-based; conditions: Table 9
Text: To quantify biased agonism mediated by each agonist across the various pathways ([Ca^2+], mobilization, pERK1/2, Akt1/2/3 and inhibition of cAMP accumulation), agonist concentration-response curves were refitted using the operation model normalized to the transduction ratio of a reference agonist (in this case, BIDI-002) as described previously (Stewart G D et al., 2009). Under these conditions, if the test agonist and the reference agonist activate the two pathways through a common receptor conformation, the log [bias factor] should be 0.0 (or bias factor different from 1.0), irrespective of differences in response amplification between pathways. In contrast, significant deviation of log [bias factor] from 0.0 (or bias factor different from 1.0) indicates the involvement of distinct conformations for the different agonists. All affinities, potencies, efficacies, and cooperativity parameters were estimated as logarithms (Christopoulos, 1998). Results are expressed as means±S.E. unless otherwise stated. Statistical analyses were by Student's t test, or one-way ANOVA followed by Dunnett's Comparison or Tukey's post-hoc test, as appropriate. Values of p<0.05 were considered statistically significant.
A “transduction ratio” is firstly derived for each response (τ/KA, where τ represents efficacy, and KA affinity, of the agonist for each GPCR conformational state), extracted from each concentration-response curve. “Bias factors” (ΔΔ(τ/KA)) were then calculated by normalizing the transduction ratio to a reference ligand (in this case, Cmpd43) and reference pathway, which here was Akt1/2/3(Thr308) phosphorylation. Lastly, bias factors were plotted on a ‘web of bias’ to visualize the potential for biased agonism. […] Under these conditions, if the test agonist and the reference agonist activate the two pathways through a common receptor conformation, the log [bias factor] should be 0.0 (i.e. the bias factor 1.0), irrespective of differences in response amplification between pathways. In contrast, significant deviation of log [bias factor] away from 0.0 (i.e. where the bias factor is different to 1.0) indicates the involvement of distinct conformations for the different agonists. All affinities, potencies, efficacies, and cooperativity parameters were estimated as logarithms (Kenakin et al. 2012).
Five signaling pathways were examined, namely pERK1/2-phosphorylation, Akt1/2/3(Ser473)-phosphorylation, Akt1(Thr308)-phosphorylation, increases in Ca2+i and inhibition of forskolin-induced cAMP accumulation. An operational model of agonism was fitted to each concentration-response curve to estimate a transduction ratio (τ/KA) for each agonist, at each pathway assessed, as described (FIG. 21B) (Kenakin et al. 2012). Transduction ratios were normalized to a reference agonist (Cmpd43) and a reference pathway (Akt1/2/3(Thr308)-phosphorylation), generating bias factors and therefore allowing quantitative cross-pathway comparison for each agonist.

[4] = Plasma levels and pharmacokinetics in mice; type: in vivo, mouse; conditions: mouse, in vivo; Table 9; mice
hFPR2 = target: T2, hFPR2 (Homo sapiens, UniProt P25090); experiment: ERK1/2 phosphorylation (AlphaScreen SureFire) in hFPR2-FlpIn-CHO cells; type: cell-based
T2 construct: expressed in transfected cells
T2 sequence (P25090 1-351): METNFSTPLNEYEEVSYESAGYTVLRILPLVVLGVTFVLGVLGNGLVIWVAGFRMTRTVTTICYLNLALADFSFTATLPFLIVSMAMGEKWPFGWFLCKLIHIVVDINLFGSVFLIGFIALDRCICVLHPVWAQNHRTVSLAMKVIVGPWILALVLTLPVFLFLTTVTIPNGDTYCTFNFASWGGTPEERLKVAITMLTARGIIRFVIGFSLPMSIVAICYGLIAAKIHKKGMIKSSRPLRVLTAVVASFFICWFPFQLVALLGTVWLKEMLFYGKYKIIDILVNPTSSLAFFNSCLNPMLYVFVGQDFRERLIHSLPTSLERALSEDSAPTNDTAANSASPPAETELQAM
Text: as §1, §2, §4, §5, §3, §6

hFPR3 = target: T3, hFPR3 (Homo sapiens, UniProt P25089); experiment: Agonist responses (ERK1/2 phosphorylation) in hFPR3-CHO cells; type: cell-based
T3 construct: expressed in transfected cells
T3 sequence (P25089 1-353): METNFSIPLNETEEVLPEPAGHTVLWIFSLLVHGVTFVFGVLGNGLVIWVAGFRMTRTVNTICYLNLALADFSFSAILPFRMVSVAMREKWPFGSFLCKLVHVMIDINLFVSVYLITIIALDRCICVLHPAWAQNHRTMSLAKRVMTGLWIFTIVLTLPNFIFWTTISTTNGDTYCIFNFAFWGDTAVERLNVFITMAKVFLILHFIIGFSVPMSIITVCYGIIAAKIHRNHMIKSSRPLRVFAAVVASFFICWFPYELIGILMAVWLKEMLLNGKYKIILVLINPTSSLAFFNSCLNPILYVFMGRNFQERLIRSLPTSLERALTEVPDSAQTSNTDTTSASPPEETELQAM
Text: as §1, with “Cells were maintained and cultured in high glucose DMEM supplemented with 10% FBS, 16 mM HEPES and 500 μg/mL hydromycin at 37° C. under a humidified atmosphere containing 5% CO2.” left out
Measurement of extracellular signal regulated kinase 1 and 2 phosphorylation (pERK1/2): Initial ERK1/2 phosphorylation at Thr202/Tyr204 time-course experiments were performed to determine the time at which ERK1/2 phosphorylation was maximal after stimulation by each agonist. […] Plates were incubated in the dark at 37° C. for 1 h before the fluorescence signal was measured by a Fusion-α plate reader (PerkinElmer Life and Analytical Sciences, Foster city, CA, USA) with standard AlphaScreen settings. […]

[5] = Table 10, receptor not given, ND = Not detectable
[6] = Table 10, receptor not given, values of 10394/10396 equal the hFPR1 values of Table 9

SMILES	Calcium Rmax (hFPR1 [1]; [5])	ERK Rmax (hFPR1 [2]; Table 10, receptor not given)	ERK pEC50 (hFPR1 [2]; [6])	further results
COc1cccc(Cc2cc(C)nn(Cc3ccc(Cl)cc3)c2=O)c1OC [MIPS-0010394]	38 ± 2	82 ± 5		EC50 (hFPR1 [1]; Table 9, read-out: potency (pEC50) Ca^2+i, hFPR1-FlpInCHO cells in vitro (converted)): 407 nM; EC50 (hFPR1 [1]; Table 10, receptor not given, ND = Not detectable, read-out: Calcium pEC50 (converted)): 407 nM; EC50 (hFPR1 [2]; Table 9, read-out: potency (pEC50) pERK1/2, hFPR1-FlpInCHO cells in vitro (converted)): 170 nM; EC50 (hFPR1 [2]; Table 10, receptor not given, values of 10394/10396 equal the hFPR1 values of Table 9, read-out: ERK pEC50 (converted)): 170 nM; Bias (away from Ca2+i), hFPR1-FlpInCHO cells in vitro (hFPR1 [3]): Slight; Tmax [4]: 0.3 h; half-life [4]: 9.5 h
CCCCC[C@H](O)/C=C/C=C\C=C\C=C\[C@@H](O)[C@@H](O)CCCC(=O)O [LxA4, lipoxin-A4]				ERK-phosphorylation at hFPR1 (in words) (hFPR1 [2]): failed to stimulate; also recorded: without effect; ERK-phosphorylation at hFPR2 (in words) (hFPR2): failed to stimulate; also recorded: without effect; Agonist response (ERK-phosphorylation) in hFPR3-CHO cells (hFPR3): failed to stimulate; also recorded: without effect
Cc1cc(Cc2ccccc2F)c(=O)n(C(C)C(=O)Nc2ccc(Br)cc2)n1 (stereo not drawn) [MIPS-0008858]	8 ± 2	91 ± 8	5.75 ± 0.12	
COc1ccccc1Cc1cc(C)nn(C(C)C(=O)Nc2ccc(Br)cc2)c1=O (stereo not drawn) [MIPS-0008854]	26 ± 9	76 ± 3	6.07 ± 0.11	
COc1cccc(Cc2cc(C)nn(C(C)C(=O)Nc3ccc(Cl)cc3)c2=O)c1 (stereo not drawn) [MIPS008744]	20 ± 5	95 ± 5	5.47 ± 0.12	
